Patent US4898940A (priority 1989, dated 1990)
Values after ≈ are worked out from the molar mass of the structure shown.

Experiments:
[1] = tested on: Melanotic melanoma B16; assay: Antitumor activity against B16 melanoma in mice; type: in vivo, BDF1 mice; settings: for T/C % of MST: B16 melanoma, BDF1 mice
Description: (§1) Lymphocytic leukemia P388 (CDF1 and BDF1 mice) and lymphoid leukemia L1210 (BDF1 mice) were inoculated by intraperitoneal injection of 0.8 ml diluted ascitic fluid containing 10^6 and 10^5 cells per mouse, respectively. Melanotic melanoma B16 (BDF1 mice) were implanted 0.5 ml of a 10% tumor brei intraperitoneally. Test materials were dissolved in 0.9% saline containing 10% dimethyl sulfoxide and graded doses of them were administered to mice intraperitoneally 24 hours after tumor implantation. Either olivomycin (NSC 38270) or mitomycin C was comparatively tested as a reference compound in the experiments.

[2] = tested on: lymphoid leukemia L1210; assay: Antitumor activity against L1210 leukemia in mice; type: in vivo, BDF1 mice; settings: for T/C % of MST: L1210 leukemia, BDF1 mice
Description: as §1

[3] = tested on: gram-positive and gram-negative bacteria; assay: In vitro antibacterial activity; type: cell-based; settings: at 50 mcg/ml
Excerpt: (§2) Nutrient agar (Eiken) was used for bacteria and Sabouraud dextrose agar (Difco) for fungi. The inoculum size was adjusted to 10^4 CFU/ml for bacteria and 10^5 -10^7 CFU/ml for fungi.

[4] = tested on: pathogenic fungi such as Candida albicans, Cryptococcus neoformans, Aspergillus fumigatus, Trichlophyton mentagrophytes and Mucor spinosus; assay: In vitro antifungal activity; type: cell-based; settings: clinically important pathogenic fungi
Excerpt: as §2

[5] = tested on: Lymphocytic leukemia P388; assay: Antitumor activity against P388 leukemia in mice; type: in vivo, CDF1 and BDF1 mice; settings: for T/C % of MST: P388 leukemia; for antitumor activity against P388 leukemia (in words): ip
Description: as §1
Values for percentage ratios of 125 and above indicate significant antitumor effect.

[6] = tested on: Piricularia oryzae; type: cell-based; settings: Piricularia oryzae D 91; Sabouraud dextrose agar
[7] = tested on: Aspergillus flavus; assay: MIC, serial agar dilution (Sabouraud dextrose agar); type: cell-based; settings: Aspergillus flavus FA 21436
Excerpt: as §2

[8] = tested on: Aspergillus fumigatus; assay: as above; type: cell-based
Excerpt: as §2

[9] = tested on: Mucor spinosus; assay: as above; type: cell-based; settings: Mucor spinosus IFO 5317
Excerpt: as §2

[10] = tested on: Sporothrix schenckii; assay: as above; type: cell-based; settings: Sporothrix schenckii IFO 8158
Excerpt: as §2

[11] = tested on: Cryptococcus neoformans; assay: as above; type: cell-based
Excerpt: as §2

[12] = tested on: Candida albicans; assay: as above; type: cell-based
Excerpt: as §2

[13] = tested on: Blastomyces dermaditis; assay: as above; type: cell-based; settings: Blastomyces dermaditis IFO 8144
Excerpt: as §2

[14] = tested on: Petriellidium boydii; assay: as above; type: cell-based; settings: Petriellidium boydii IFO 8073
Excerpt: as §2

[15] = tested on: Trichophyton mentagrophytes; assay: as above; type: cell-based
Excerpt: as §2

[16] = tested on: Fusarium moniliforme; assay: as above; type: cell-based; settings: Fusarium moniliforme A 2284
Excerpt: as §2

[17] = tested on: Staphylococcus aureus; assay: MIC, serial agar dilution (nutrient agar); type: cell-based
Excerpt: as §2

[18] = tested on: Micrococcus luteus; assay: MIC, serial agar dilution (nutrient agar); type: cell-based; settings: Micrococcus luteus PCI-1001
Excerpt: as §2

[19] = tested on: Bacillus subtilis; assay: MIC, serial agar dilution (nutrient agar); type: cell-based; settings: Bacillus subtilis PCI-219
Excerpt: as §2

[20] = tested on: Serratia marcescens; assay: MIC, serial agar dilution (nutrient agar); type: cell-based; settings: Serratia marcescens A20222
Excerpt: as §2

[21] = tested on: Escherichia coli; assay: MIC, serial agar dilution (nutrient agar); type: cell-based; settings: Escherichia coli NIHJ
Excerpt: as §2

[22] = tested on: Proteus mirabilis; assay: MIC, serial agar dilution (nutrient agar); type: cell-based; settings: Proteus mirabilis A9554
Excerpt: as §2

[23] = tested on: Pseudomonas aeruginosa; assay: MIC, serial agar dilution (nutrient agar); type: cell-based; settings: Pseudomonas aeruginosa A9930
Excerpt: as §2

[24] = tested on: Enterobacter cloacae; assay: MIC, serial agar dilution (nutrient agar); type: cell-based; settings: Enterobacter cloacae A9659
Excerpt: as §2

[25] = tested on: Morganella morganii; assay: MIC, serial agar dilution (nutrient agar); type: cell-based; settings: Morganella morganii A9553
Excerpt: as §2

[26] = tested on: Streptococcus faecalis; assay: MIC, serial agar dilution (nutrient agar); type: cell-based; settings: Streptococcus faecalis A9612
Excerpt: as §2

[27] = tested on: Klebsiella pneumoniae; assay: MIC, serial agar dilution (nutrient agar); type: cell-based; settings: Klebsiella pneumoniae D-11
Excerpt: as §2

[28] = tested on: Proteus vulgaris; assay: MIC, serial agar dilution (nutrient agar); type: cell-based; settings: Proteus vulgaris A9436
Excerpt: as §2

[29] = tested on: Staphylococcus epidermidis; assay: MIC, serial agar dilution (nutrient agar); type: cell-based
Excerpt: as §2

[30] = Acute toxicity, single intraperitoneal administration; settings: male ddY mice
[31] = Solubility in solvents; type: physicochemical

With `CCCCCCC/C=C/C=C/C(=O)N[C@H](C(=O)N[C@H]1C[C@@H](O)CCNC(=O)/C=C/[C@H](C)NC1=O)[C@@H](C)O` [BU-2867T A] the “T/C % of MST” value ([1]; 0.25 mg/kg/day ip) was 113%, the “T/C % of MST” value ([1]; 0.5 mg/kg/day ip) was 116% and the “T/C % of MST” value ([1]; 1 mg/kg/day ip) was 125%. The “T/C % of MST” value ([1]; 2 mg/kg/day ip) was “Tox”, the “antitumor activity against B16 melanoma (in words)” value ([1]; compared with P388) was “less active” and the “T/C % of MST” value ([2]; 0.063 mg/kg/day ip) was 106%. The “T/C % of MST” value ([2]; 0.13 mg/kg/day ip) was 118%, the “T/C % of MST” value ([2]; 0.25 mg/kg/day ip) was 118% and the “T/C % of MST” value ([2]; 0.5 mg/kg/day ip) was 129%. For the same molecule, the “antitumor activity against L1210 leukemia (in words)” value ([2]; compared with P388) was “less active”, the “growth inhibition of gram-positive and gram-negative bacteria (in words)” value [3] was “did not inhibit the growth” and the “antifungal activity (in words)” value [4] was “somewhat less active than component C”. The “T/C % of MST” value ([5]; 0.031 mg/kg/day ip, schedule 2 (once daily on days 1 through 9)) was 109%, the “T/C % of MST” value ([5]; 0.063 mg/kg/day ip, schedule 2 (once daily on days 1 through 9)) was 136% and the “T/C % of MST” value ([5]; 0.1 mg/kg/day ip, schedule 1 (once daily on days 1, 4 and 7)) was 120%. For the same molecule, the “T/C % of MST” value ([5]; 0.13 mg/kg/day ip, schedule 2 (once daily on days 1 through 9)) was 147%, the “T/C % of MST” value ([5]; 0.25 mg/kg/day ip, schedule 2 (once daily on days 1 through 9)) was 156% and the “T/C % of MST” value ([5]; 0.3 mg/kg/day ip, schedule 1 (once daily on days 1, 4 and 7)) was 130%. For the same molecule, the “T/C % of MST” value ([5]; 0.5 mg/kg/day ip, schedule 2 (once daily on days 1 through 9)) was 186%, the “T/C % of MST” value ([5]; 1 mg/kg/day ip, schedule 1 (once daily on days 1, 4 and 7)) was 140% and the “T/C % of MST” value ([5]; 1 mg/kg/day ip, schedule 2 (once daily on days 1 through 9)) was 228%. For the same molecule, the “T/C % of MST” value ([5]; 2 mg/kg/day ip, schedule 2 (once daily on days 1 through 9)) was 67%, the “antitumor activity against P388 leukemia (in words)” value ([5]; treatment schedule 1 (once daily on days 1, 4 and 7)) was “showed antitumor activity” and the “antitumor activity against P388 leukemia (in words)” value ([5]; treatment schedule 2 (once daily on days 1 through 9)) was “highly active”. For the same molecule, the MIC [6] was over 50 µg/mL, the MIC [7] was 25 µg/mL (≈ 48 µM) and the MIC ([8]; Aspergillus fumigatus IAM 2034) was 1.6 µg/mL (≈ 3.07 µM). The MIC ([8]; Aspergillus fumigatus IAM 2530) was 1.6 µg/mL (≈ 3.07 µM), the MIC [9] was 1.6 µg/mL (≈ 3.07 µM) and the MIC [10] was over 50 µg/mL. It also gave an MIC ([11]; Cryptococcus neoformans D 49) of 25 µg/mL (≈ 48 µM), an MIC ([11]; Cryptococcus neoformans IAM 4514) of 25 µg/mL (≈ 48 µM) and an MIC ([12]; Candida albicans A 9540) of 1.6 µg/mL (≈ 3.07 µM). The MIC ([12]; Candida albicans IAM 4888) was 3.1 µg/mL (≈ 5.95 µM), the MIC [13] was 50 µg/mL (≈ 96 µM) and the MIC [14] was over 50 µg/mL. For the same molecule, the MIC ([15]; Trichophyton mentagrophytes #4329) was 25 µg/mL (≈ 48 µM), the MIC ([15]; Trichophyton mentagrophytes D 155) was 25 µg/mL (≈ 48 µM) and the MIC [16] was over 50 µg/mL. The MIC ([17]; Staphyloccus aureus Bx-1633) was over 50 µg/mL, the MIC ([17]; Staphylococcus aureus 209P) was over 50 µg/mL and the MIC ([17]; Staphylococcus aureus Smith) was over 50 µg/mL. For the same molecule, the MIC [18] was over 50 µg/mL, the MIC [19] was over 50 µg/mL and the MIC [20] was over 50 µg/mL. The MIC [21] was over 50 µg/mL, the MIC [22] was over 50 µg/mL and the MIC [23] was over 50 µg/mL. The MIC [24] was over 50 µg/mL, the MIC [25] was over 50 µg/mL and the MIC [26] was over 50 µg/mL. It also gave an MIC [27] of over 50 µg/mL, an MIC [28] of over 50 µg/mL and an MIC ([29]; Staphylococcus epidermidis A22152) of over 50 µg/mL. For the same molecule, the MIC ([29]; Staphylococcus epidermidis D153) was over 50 µg/mL, the LD50 [30] was 8.1 mg/kg and the “solubility in chloroform, acetonitrile and ethyl acetate” value [31] was “slightly soluble”. For the same molecule, the “solubility in methanol, ethanol, n-butanol and dimethyl sulfoxide” value [31] was “readily soluble” and the “solubility in n-hexane and water” value [31] was “practically insoluble”.
